{"source": "paper PMC8617944", "about": "“Preclinical Pharmacokinetics and Acute Toxicity in Rats of 5-{[(2E)-3-Bromo-3-carboxyprop-2-enoyl]amino}-2-hydroxybenzoic Acid: A Novel 5-Aminosalicylic Acid Derivative with Potent Anti-Inflammatory Activity” (Molecules, 2021)", "key": {"[1]": {"design": "method as in ref 32 = [32]; doi:10.1016/j.arabjc.2016.12.026; 32. Cabrera Pérez L.C. Gutiérrez Sánchez M. Mendieta Wejebe J.E. Hernández Rodríguez M. Fragoso Vázquez M.J. Salazar J.R. Correa Basurto J. Padilla Martínez I.I. Rosales Hernández M.C. Novel 5-aminosa", "conditions": "Osiris Property Server Explorer; cited from earlier work"}, "[2]": {"test": "Stability of stock solutions", "type": "physicochemical", "conditions": "1000 μg/mL in acetonitrile-methanol (50:50, v/v), 2–4 °C", "procedure": "Six stock solutions at 1000 μg/mL of C1 were prepared by dissolving 10 mg in a mixture of acetonitrile-methanol (50:50, v/v), adjusting the volume in a volumetric flask of 10 mL and storing the final solution at 2–4 °C. […] Calibration standards were prepared daily from the stock solution at concentrations of 0.1, 0.5, 1, 5, 10, 50, and 100 μg/mL, and calibration curves were constructed in triplicate by plotting known concentrations of the standard versus the detector response area (File S4)."}, "[3]": {"test": "Plasma protein binding assay (ultrafiltration, RP-HPLC)", "type": "in vitro ADME, Wistar rats", "conditions": "rat plasma", "procedure": "Different quantities of C1 stock solution at 10 mg/mL were spiked into 600 µL of freshly obtained blank rat plasma to give a final concentration of 1, 5, 10, and 20 µg/mL. The resulting samples were incubated at 37 °C for 4 h. After incubation, an aliquot of 100 µL was removed to determine the total concentration, and another aliquot of 500 µL was transferred to a 10 kD cut-off ultrafiltration device (Millipore Corporation, Burlington, MA, USA). Subsequently, samples were centrifuged at 2000× g and 37 °C for 2 h. The free drug concentration of C1 was measured by evaluating 100 µL of ultrafiltrate with RP-HPLC, interpolating the main areas of the samples into a standard curve constructed with known amounts of C1. The percentage of protein binding was calculated with the following formula (1). Protein binding ratio (%) = […](1)"}}, "data": [{"smiles": "O=C(/C=C(/Br)C(=O)O)Nc1ccc(O)c(C(=O)O)c1", "note": "[Compound C1, 5-{[(2E)-3-bromo-3-carboxyprop-2-enoyl]amino}-2-hydroxybenzoic acid]", "values": [{"measurement": "predicted toxicity index", "setting": "[1]", "value": "low toxicity index"}, {"measurement": "stability of stock solutions", "setting": "[2]", "value": "stable for three months"}, {"measurement": "fraction unbound at 4 h, 1 µg/mL", "setting": "[3]; Wistar, 1 µg/mL, read-out: Percentage of Unbound Fraction ± SD (%)", "value": "0.963 ± 0.014"}, {"measurement": "fraction unbound at 4 h, 5 µg/mL", "setting": "[3]; Wistar, 5 µg/mL, read-out: Percentage of Unbound Fraction ± SD (%)", "value": "0.942 ± 0.024"}, {"measurement": "fraction unbound at 4 h, 10 µg/mL", "setting": "[3]; Wistar, 10 µg/mL, read-out: Percentage of Unbound Fraction ± SD (%)", "value": "0.934 ± 0.015"}, {"measurement": "fraction unbound at 4 h, 20 µg/mL", "setting": "[3]; Wistar, 20 µg/mL, read-out: Percentage of Unbound Fraction ± SD (%)", "value": "0.948 ± 0.023"}, {"measurement": "fraction unbound at 4 h", "setting": "[3]; Wistar, 1 to 20 μg/mL", "value": "0.934 to 0.963"}, {"measurement": "Percentage of Bound Fraction ± SD (%)", "setting": "[3]; 1 µg/mL", "value": "3.7 ± 1.1", "unit": "%"}, {"measurement": "Percentage of Bound Fraction ± SD (%)", "setting": "[3]; 5 µg/mL", "value": "5.8 ± 2.4", "unit": "%"}, {"measurement": "Percentage of Bound Fraction ± SD (%)", "setting": "[3]; 10 µg/mL", "value": "6.6 ± 1.5", "unit": "%"}, {"measurement": "Percentage of Bound Fraction ± SD (%)", "setting": "[3]; 20 µg/mL", "value": "5.2 ± 2.3", "unit": "%"}]}]}
